This experiment concerns the target human GPR40 receptor (Homo sapiens (Human), UniProt O14842). In words: IP1 accumulation measurements using the IPOne assay system. It is filed as cell-based. As to conditions: 1321N1 cells stably expressing human GPR40 receptor, 1 h stimulation. The procedure: IP1 accumulation measurements using the IPOne assay system—1321N1 cells stably expressing human GPR40 receptor (Euroscreen, Belgium) are seeded 24 h before the assay in white 384-well plates in culture medium containing 10% FCS, 1% Na-Pyruvate and 400 μg/mL G418. IP1 is assayed according to the manufacturer's description (Cisbio Bioassays, France). In brief, the assay is started by substitution of the culture medium by stimulation buffer (Hepes 10 mM, CaCl2 1 mM, MgCl2 0.5 mM, KCl 4.2 mM, NaCl 146 mM, glucose 5.5 mM and LiCl 50 mM, pH 7.4). Cells are stimulated for 1 h at 37° C., 5% CO2 by addition of the compounds that are diluted in stimulation buffer containing LiCl. Assays are stopped by adding HTRF-conjugates (IP1-d2 and Anti-IP1 cryptate Tb) and lysis buffer, provided by the manufacturer. After an incubation time of 1 h at room temperature plates are measured using an EnVision™, Perkin Elmer. The obtained fluorescence ratios at 665/615 […] are then used to calculate the pEC50 values using Assay Explorer 3.3 Software (Accelrys, Inc.) by interpolation using an IP1 reference curve and subsequent sigmoidal curve fitting allowing for a variable hill slope.

SMILES strings stand for the structures.

Sequence of human GPR40 receptor (O14842 whole entry): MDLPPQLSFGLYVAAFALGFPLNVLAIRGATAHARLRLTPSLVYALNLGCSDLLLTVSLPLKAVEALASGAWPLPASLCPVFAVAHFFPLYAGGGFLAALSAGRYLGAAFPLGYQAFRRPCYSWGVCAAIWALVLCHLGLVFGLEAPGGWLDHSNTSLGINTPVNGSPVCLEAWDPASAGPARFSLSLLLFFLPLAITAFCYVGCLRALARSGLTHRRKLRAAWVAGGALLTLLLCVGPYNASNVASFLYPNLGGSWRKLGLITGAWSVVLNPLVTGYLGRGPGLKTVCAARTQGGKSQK

For the compound `CS(=O)(=O)CCCOc1ccc(Oc2ccc(F)c3c2CC[C@H]3Oc2ccc3c(c2)OC[C@H]3CC(=O)O)cc1` [Example 4, [(S)-6-{(R)-7-Fluoro-4-[4-(3-methanesulfonyl-propoxy)-phenoxy]-indan-1-yloxy}-2,3-dihydro-benzofuran-3-yl)-acetic acid], the 50% effective concentration (EC50) is 15 nM. This lies in the double-digit nanomolar range.

`O=C(O)C[C@@H]1COc2cc(O[C@@H]3CCc4c(Oc5ccc(CN6CCOCC6)cc5)ccc(F)c43)ccc21` [Example 5, {(S)-6-[(R)-7-Fluoro-4-(4-morpholin-4-ylmethyl-phenoxy)-indan-1-yloxy]-2,3-dihydro-benzofuran-3-yl}-acetic acid] showed an EC50 of 25 nM.

`CC(=O)NCc1cccc(Oc2ccc(F)c3c2CC[C@H]3Oc2ccc3c(c2)OC[C@H]3CC(=O)O)c1` [Example 7, [(S)-6-{(R)-4-[3-(Acetylamino-methyl)-phenoxy]-7-fluoro-indan-1-yloxy}-2,3-dihydro-benzofuran-3-yl]-acetic acid] registered an EC50 of 55 nM.

Compound `CC(=O)Nc1ccc(Oc2ccc(F)c3c2CC[C@H]3Oc2ccc3c(c2)OC[C@H]3CC(=O)O)cc1` [Example 8, {(S)-6-[(R)-4-(4-Acetylamino-phenoxy)-7-fluoro-indan-1-yloxy]-2,3-dihydro-benzofuran-3-yl}-acetic acid] displayed an EC50 of 34 nM.

`O=C(O)C[C@@H]1COc2cc(O[C@@H]3CCc4c(Oc5ccc(-n6ccnc6)cc5)ccc(F)c43)ccc21` [Example 10, {(S)-6-[(R)-7-Fluoro-4-(4-imidazol-1-yl-phenoxy)-indan-1-yloxy]-2,3-dihydro-benzofuran-3-yl}-acetic acid] gave an EC50 of 11 nM.

`O=C(O)C[C@@H]1COc2cc(O[C@@H]3CCc4c(Oc5ccc(-c6nnn[nH]6)cc5)ccc(F)c43)ccc21` [Example 13, [(S)-6-{(R)-7-Fluoro-4-[4-(1H-tetrazol-5-yl)-phenoxy]-indan-1-yloxy}-2,3-dihydro-benzofuran-3-yl]-acetic acid] had an EC50 of 282 nM.

The compound `Cn1nnnc1-c1ccc(Oc2ccc(F)c3c2CC[C@H]3Oc2ccc3c(c2)OC[C@H]3CC(=O)O)cc1` [Example 14, [(S)-6-{(R)-7-Fluoro-4-[4-(1-methyl-1H-tetrazol-5-yl)-phenoxy]-indan-1-yloxy}-2,3-dihydro-benzofuran-3-yl]-acetic acid] came in with a half-maximal effective concentration (EC50) of 23 nM.

In turn, `Cn1nnc(-c2ccc(Oc3ccc(F)c4c3CC[C@H]4Oc3ccc4c(c3)OC[C@H]4CC(=O)O)cc2)n1` [Example 15, [(S)-6-{(R)-7-Fluoro-4-[4-(2-methyl-2H-tetrazol-5-yl)-phenoxy]-indan-1-yloxy}-2,3-dihydro-benzofuran-3-yl]-acetic acid] had a half-maximal effective concentration (EC50) of 3 nM.

As for `O=C(O)C[C@@H]1COc2cc(O[C@@H]3CCc4c(Oc5ccnc(O[C@H]6CCOC6)c5)ccc(F)c43)ccc21` [Example 16, {(S)-6-[(R)-7-fluoro-4-{2-[(S)-tetrahydro-furan-3-yloxy]-pyridin-4-yloxy}-indan-1-yloxy]-2,3-dihydro-benzofuran-3-yl}-acetic acid], it took 9 nM to reach a half-maximal effect (EC50).

Compound `CC(C)(O)CCOc1ccc(Oc2ccc(F)c3c2CC[C@H]3Oc2ccc3c(c2)OC[C@H]3CC(=O)O)nc1` [Example 17, [(S)-6-{(R)-7-Fluoro-4-[5-(3-hydroxy-3-methyl-butoxy)-pyridin-2-yloxy]-indan-1-yloxy}-2,3-dihydro-benzofuran-3-yl]-acetic acid] had an EC50 of 23 nM.

On to `O=C(O)C[C@@H]1COc2cc(O[C@@H]3CCc4c(Oc5ccc(O[C@H]6CCOC6)cn5)ccc(F)c43)ccc21` [Example 18, {(S)-6-[(R)-7-Fluoro-4-{5-[(S)-tetrahydro-furan-3-yloxy}-pyridin-2-yloxy}-indan-1-yloxy]-2,3-dihydro-benzofuran-3-yl}-acetic acid], for which the EC50 is 31 nM.

Consider `CS(=O)(=O)CCCOc1c(F)cc(Oc2ccc(F)c3c2CC[C@H]3Oc2ccc3c(c2)OC[C@H]3CC(=O)O)cc1F` [Example 19, [(S)-6-{(R)-4-[3,5-Difluoro-4-(3-methanesulfonyl-propoxy)-phenoxy]-7-fluoro-indan-1-yloxy}-2,3-dihydro-benzofuran-3-yl]-acetic acid], for which the EC50 was found to be 12 nM.

Regarding `CC(C)(O)Cn1cc(-c2c(F)cc(Oc3ccc(F)c4c3CC[C@H]4Oc3ccc4c(c3)OC[C@H]4CC(=O)O)cc2F)cn1` [Example 20, {(S)-6-[(R)-4-{3,5-Difluoro-4-[1-(2-hydroxy-2-methyl-propyl)-1H-pyrazol-4-yl]-phenoxy}-7-fluoro-indan-1-yloxy]-2,3-dihydro-benzofuran-3-yl}-acetic acid], the 50% effective concentration (EC50) came to 7 nM. This EC50 is about 1.7-fold lower than that of the compound before.

In the case of `O=C(O)C[C@@H]1COc2cc(O[C@@H]3CCc4c(Oc5ccc(-c6nccs6)cc5)ccc(F)c43)ccc21` [Example 21, {(S)-6-[(R)-7-Fluoro-4-(4-thiazol-2-yl-phenoxy)-indan-1-yloxy]-2,3-dihydro-benzofuran-3-yl}-acetic acid], it took 6 nM to reach a half-maximal effect (EC50).

In the case of `Cc1ncc(-c2ccc(Oc3ccc(F)c4c3CC[C@H]4Oc3ccc4c(c3)OC[C@H]4CC(=O)O)cc2)s1` [Example 22, [(S)-6-{(R)-7-Fluoro-4-[4-(2-methyl-thiazol-5-yl)-phenoxy]-indan-1-yloxy}-2,3-dihydro-benzofuran-3-yl]-acetic acid], the EC50 came to 5 nM.

In turn, `CC(C)(O)CCCc1ccc(Oc2ccc(F)c3c2CC[C@H]3Oc2ccc3c(c2)OC[C@H]3CC(=O)O)nc1` [Example 23, [(S)-6-{(R)-7-Fluoro-4-[5-(4-hydroxy-4-methyl-pentyl)-pyridin-2-yloxy]-indan-1-yloxy}-2,3-dihydro-benzofuran-3-yl]-acetic acid] returned a concentration giving a half-maximal response (EC50) of 84 nM.

The compound `O=C(O)C[C@@H]1COc2cc(O[C@@H]3CCc4c(Oc5ccc6c(c5)NC(=O)CC6)ccc(F)c43)ccc21` [Example 24, {(S)-6-[(R)-7-Fluoro-4-(2-oxo-1,2,3,4-tetrahydroquinoline-7-yloxy)-indan-1-yloxy]-2,3-dihydrobenzofuran-3-yl}-acetic acid] yielded an EC50 of 10 nM. Compared with the last compound, the EC50 is about 8.4-fold lower.

`O=C(O)C[C@@H]1COc2cc(O[C@@H]3CCc4c(Oc5ccc6c(c5)OCO6)ccc(F)c43)ccc21` [Example 25, {(S)-6-[(R)-4-(Benzo[d][1,3]dioxol-5-yloxy)-7-fluoro-indan-1-yloxy]-2,3-dihydrobenzofuran-3-yl}-acetic acid]: the concentration for a half-maximal effect (EC50) stood at 6 nM. This EC50 lies about 1.7-fold lower than the previous one.

As to `O=C(O)C[C@@H]1COc2cc(O[C@@H]3CCc4c(Oc5ccc6c(c5)OCCO6)ccc(F)c43)ccc21` [Example 26, {(S)-6-[(R)-4-(2,3-Dihydrobenzo[b][1,4]dioxin-6-yloxy)-7-fluoro-indan-1-yloxy]-2,3-dihydrobenzofuran-3-yl}-acetic acid], the EC50 turned out to be 6 nM. In other words, the single-digit nanomolar range.

Consider `O=C(O)C[C@@H]1COc2cc(O[C@@H]3CCc4c(Oc5ccc(C6CCOCC6)cc5)ccc(F)c43)ccc21` [Example 27, ((S)-6-{(R)-7-Fluoro-4-[4-(tetrahydro-2H-pyran-4-yl)phenoxy]-indan-1-yloxy}-2,3-dihydrobenzofuran-3-yl)-acetic acid], for which a half-maximal response (EC50) required 9 nM.

Turning to `CC(C)(O)CCCc1ccc(Oc2ccc(F)c3c2CC[C@H]3Oc2ccc3c(c2)OC[C@H]3CC(=O)O)cc1` [Example 28, ((S)-6-{(R)-7-Fluoro-4-[4-(4-hydroxy-4-methylpentyl)phenoxy]-indan-1-yloxy}-2,3-dihydrobenzofuran-3-yl)-acetic acid], the EC50 was found to be 20 nM.

Broadly, the EC50 is the concentration that produces a half-maximal response. High values mean weaker potency, low ones greater potency.

Values taken from patent US9597310B2, “Indanyloxydihydrobenzofuranylacetic acids” (Boehringer Ingelheim International GmbH, priority 2012, dated 2017).
